What all share (assay): NCI tumour cell line growth inhibition, 48 h
Assay [1] has as its system SW-620 colon.
Assay [2] has as its system SK-MEL-5 melanoma.
Assay [3] has as its system NCI-H460 lung.
In assay [4] the test system is NCI-H522 lung.
Assay [5] relates to IGROV1 ovarian.
The test system of assay [6] is SK-MEL-28 melanoma.
In assay [7] the test system is HOP-62 NSCLC.
Assay [8] has as its system MDA-MB-435.
Assay [9] concerns MOLT-4 leukemia.
Assay [10] relates to COLO 205 colon.

The text below walks through data of PubChem BioAssay (NCI).

Where “and” joins values, the source holds several entries; their conditions need not be identical. Identical values can stand only once.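 In this assay, cells in 96-well plates receive the compound at five concentrations for 48 hours. Endpoints are linearly interpolated between the surrounding concentrations. Abbreviation: GI50, concentration required for 50% inhibition of growth. TGI marks complete inhibition of growth.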 A value given as a limit tells only on which side of the number the result lay.

Take `Cc1cc(O)c2c(c1O)C(=O)c1cccc(O)c1C2=O`: the TGI in [1], in assay [2], in assay [3], in assay [4], in assay [5] and in assay [6] was greater than 100 µM in each case. In addition, the TGI in assay [7] and in assay [8] was greater than 100 µM in each case.
With `O=[N+]([O-])c1ccc2nc(Cl)n[n+]([O-])c2c1`, the TGI in assay [1] worked out at 35.5 µM; in [2] it was 20.7 µM; in assay [3], 43.3 µM; in assay [9], 3.34 µM; in assay [4], 25.8 µM; in assay [5], 25.6 µM. Moreover, the TGI came to 34 µM in [6], 30.9 µM in assay [7], 25.2 µM in [10] and 26.9 µM in [8].
Turning to `CC(=O)N1N=C(c2ccc3ccccc3c2O)CC1c1cccs1` (stereo not given), the TGI in assay [1] is greater than 100 µM; in assay [2] it was greater than 100 µM; in assay [3], greater than 100 µM; in assay [9] it was 33.5 µM; in [4], 75.1 µM; in assay [5] it was greater than 100 µM. Also, the TGI in assay [6], in assay [7], in assay [10] and in [8] was greater than 100 µM in each case.
As to `C(/C=C/c1ccccc1)=Nc1ccc2c(c1)Cc1ccccc1-2`, the TGI in [1] was greater than 100 µM; in [2] it was greater than 100 µM; in assay [3], greater than 100 µM; in [9], 95 µM; in assay [4] it was greater than 100 µM; in assay [5], greater than 100 µM. Further, the TGI in assay [6], in assay [7] and in [8] was greater than 100 µM throughout.
Consider `C=C(C)C(=O)O[C@H]1CC2=C[C@@H](C[C@@]3(C)O[C@@H]3[C@H]3OC(=O)C(=C)[C@@H]31)OC2=O`, for which the TGI turned out to be 1.94 µM in assay [1]; 8.22 µM in [2]; 10.6 µM in assay [3]; 12.8 µM in [9]; 1.71 µM in assay [4]; 9.46 µM in assay [5]. Further, the values for the TGI in [6], in assay [7] and in assay [10] were 3.61 µM, 98.9 µM and 3.4 µM, respectively. Besides, the GI50 was 0.789 µM in assay [9] and 1.24 µM in [6].
For the compound `CCOC1=NC(C(F)(F)F)(C(F)(F)F)N=C(N2CCOCC2)O1`, the TGI in assay [1], in assay [2], in [3], in assay [9], in assay [4] and in assay [5] was greater than 100 µM in each case. For the same compound, the TGI in assay [6], in assay [10] and in assay [8] was greater than 100 µM throughout.
As for `COc1cc(C2S/C(=C/c3ccccc3)C(=O)N2c2ccc(NC(C)=O)cc2)cc(OC)c1OC` (stereo not given), the TGI in assay [2] is 34.9 µM; in assay [9], 75.6 µM; in assay [4], 26.6 µM; in [6], greater than 100 µM; in assay [7], greater than 100 µM; in assay [10] it was 30.3 µM. The compound further displayed a TGI in assay [8] of 62.4 µM.
As to `COc1ccc(-c2csc(=Nc3ccccc3)n2CCCN(C)C)cc1`, the TGI is 78.4 µM in assay [3]; 48.9 µM in [9]; 58.1 µM in [6]; 28.3 µM in [7]; 65.3 µM in assay [8].
Turning to `NC(CSCc1ccc(I)cc1)C(=O)O` (stereo not given), the TGI in [1], in assay [2], in assay [3], in [9], in assay [4] and in [5] was greater than 100 µM each time. Moreover, the TGI in assay [6], in assay [7], in [10] and in assay [8] was greater than 100 µM throughout.
Turning to `c1ccc(N2N=C(c3cccc(Nc4ccncc4)c3)CC2c2ccc3c(c2)OCO3)cc1` (stereo not given), the GI50 in [1] was 1.18 µM; in assay [2] it was 1.77 µM; in assay [3] it was 1.71 µM; in assay [4], 1.61 µM; in assay [5] it was 1.7 µM; in [6], 1.66 µM. Besides, the GI50 in assay [10] was 1.8 µM; in assay [8], 0.383 µM. Also, the TGI was 2.54 µM in [1]; 3.17 µM in assay [2]; 3.18 µM in assay [3]; 3.48 µM in assay [4]; 3.6 µM in assay [5]; 3.14 µM in [6]. Also, the TGI in assay [10] is 3.84 µM; in assay [8] it was 1.47 µM.
As for `Cc1nc2c(c(=O)[nH]1)S/C(=C(/C#N)c1nc3ccccc3[nH]1)N2c1ccccc1`, the TGI in assay [1], in [2], in [3], in [9], in [4] and in assay [5] was greater than 100 µM throughout. The TGI in assay [6], in assay [7] and in assay [10] was greater than 100 µM each time.
For `Cc1c(C)c(C)c(CC2(C)CSC2)c(CC2(C)CSC2)c1C`, the TGI in [1], in assay [2], in assay [3], in [9], in [4] and in [5] was greater than 100 µM in each case. Further, the TGI in assay [6], in assay [7] and in assay [10] was greater than 100 µM in each case.
With `CC[C@@H]1ON(C)[C@H]2CN(C)C(=O)[C@@H]12`, the TGI in [1], in [2], in assay [3], in assay [9], in assay [4] and in [5] was greater than 100 µM throughout. In addition, the TGI in assay [6], in assay [7], in [10] and in assay [8] was greater than 100 µM throughout.
As for `CCN1CCCC(C#N)(c2ccccc2)CC1` (stereo not given), the TGI in assay [1], in assay [2], in [3], in assay [9], in assay [5] and in assay [6] was greater than 100 µM in each case. Besides, the TGI in assay [7] and in [10] was greater than 100 µM each time.
Regarding `CN(C)CCCC1c2ccccc2Oc2ccc(C(F)(F)F)cc21` (stereo not given), the TGI came out at 33.7 µM in [1]; 21 µM in assay [2]; 31.8 µM in [3]; 22.7 µM in assay [9]; 29.4 µM in assay [4]; 27.6 µM in [5]. Further, the TGI in [6] came to 15.7 µM; in assay [7] it was 31 µM; in assay [10], 17.7 µM; in assay [8] it was 19.1 µM.
`COc1ccc2c(c1O)-c1cc(O)cc3c1[C@@H](C2)N(C)CC3`: the TGI came to 145 µM in [1]; 122 µM in [2]; 150 µM in assay [3]; 211 µM in assay [9]; 255 µM in assay [4]; 139 µM in [5]. Moreover, the TGI in assay [6] was 157 µM; in [7], 106 µM; in assay [10], 106 µM.
Turning to `NC(=S)N/N=C/c1nccc2ccccc12`, the TGI was greater than 100 µM in assay [1]; greater than 100 µM in [2]; 4.94 µM in [3]; greater than 100 µM in assay [9]; 5.24 µM in [4]; greater than 100 µM in assay [5]. The TGI in assay [6], in [7] and in assay [10] was greater than 100 µM in each case.
As for `COc1cc([C@@H]2c3cc4c(c(O)c3C[C@H]3COC(=O)[C@@H]32)OCO4)cc(OC)c1OC`, the GI50 was 0.123 µM in [1]; 0.0407 µM in assay [2]; 0.0564 µM in [3]; 0.539 µM in assay [9]; 0.393 µM in [4]; 0.0728 µM in assay [5]. Besides, the GI50 in assay [7] was 0.249 µM; in assay [10] it was 0.239 µM; in assay [8], 0.000192 µM. The TGI was 57.9 µM and 218 µM and > 100 µM in assay [7]; 0.000802 µM in [8].
